# The OPERA property sets (Mansouri et al. 2018)
# Conditions: not given
SMILES,boiling point [°C],log10 biodegradation half-life (days),log10 vapour pressure (mmHg),log10 Henry constant (atm·m³/mol),melting point [°C],ready biodegradability,log10 Koa,log10 Koc (L/kg)
CCC(C)C(C)CC (stereo not drawn),118,0.477,1.34,,,,,
C=CCF,-3,,,,,,,
CCc1ccc(O)cc1,218,,-1.43,-6.11,45,readily biodegradable,,
COc1cc2ccc(=O)oc2cc1O,,,,,204,,,
COc1cc2nc(N3CCN(C(=O)c4ccco4)CC3)nc(N)c2cc1OC,,,,,279,,,
C/C=C/C(C)CC (stereo not drawn),87.6,,,,-126,,,
O=C1c2ccc(O)cc2C(=O)c2cc(O)ccc21,,,,,354,,,
CN(C)CCCN(CCCN(C)C)CCCN(C)C,,,,,,not readily biodegradable,,
CC(O)COCC(C)O (stereo not drawn),233,,,,,not readily biodegradable,,
O=C(O)COc1nn(Cc2ccccc2)c2ccccc12,,,,,160,,,
Cc1ccc(S(=O)(=O)O)c(C)c1,,,,,57,readily biodegradable,,
C[C@]12CC[C@@H]3c4ccc(OC(=O)c5ccccc5)cc4CC[C@H]3[C@@H]1CC[C@@H]2O,,,,,196,,,
CCCCCCCC/C=C\CCCCCCCCO,,,,,,readily biodegradable,,
O=C(O)COc1ccc(C(=O)c2cccs2)c(Cl)c1Cl,,,,,149,,,
O=C(O)c1cccc(Oc2ccccc2)c1,,,,,150,,,
C[Si](C)(C)O[Si](C)(C)O[Si](C)(C)O[Si](C)(C)O[Si](C)(C)O[Si](C)(C)O[Si](C)(C)C,270,,-2.5,,-78,,,
CC(C)NCCO,173,,,,128,,,
CCCOC(C)C,83,,,,,,,
CN1C(=O)CC[C@H]1c1cccnc1,,,,,41,,,
C,-162,,5.67,,-182,,-0.38,
O=[N+]([O-])OCC(CCl)O[N+](=O)[O-] (stereo not drawn),192,,,,,,,
C=C(Br)CC1(C(C)C)C(=O)NC(=O)NC1=O,,,,,181,,,
CC=C[C@H](O)CCCC,175,,,,,,,
Cn1ccc(=O)[nH]c1=O,,,-3.29,,237,,,
CCOC(=O)c1ccc(O)c(OC)c1,292,,,,44,,,

SMILES,boiling point [°C],log10 biodegradation half-life (days),log10 vapour pressure (mmHg),log10 Henry constant (atm·m³/mol),melting point [°C],ready biodegradability,log10 Koa,log10 Koc (L/kg)
NC(=O)NC1NC(=O)NC1=O (stereo not drawn),,,,,238,,,
C=C1/C(=C\C=C2/CCC[C@]3(C)[C@@H]([C@H](C)CCCC(C)(C)O)CC[C@@H]23)C[C@@H](O)C[C@@H]1O,,,,,115,,,
CC(=O)Oc1ccc(OC(C)=O)c(OC(C)=O)c1,300,,,,,,,
C1CCC2=NCCCN2CC1,,,,,,not readily biodegradable,,
Clc1ccc(Br)s1,,,,,-20,,,
CCCCCCCCCCCC[N+](CCO)(CCO)Cc1ccccc1.[Cl-],,,,,108,,,
O=C[C@H](O)C(O)[C@H](O)CO (stereo in doubt),,,-9.71,,,,,
CCCCC(Cl)CC (stereo not drawn),144,,,,,,,
CC(CNC1CCCCC1)OC(=O)c1ccccc1.Cl (stereo not drawn),,,,,178,,,
CC(C)(CO)Cc1ccccc1,,,,,34.5,,,
O=C(O)c1ccc(F)c(F)c1F,,,,,141,,,
O=C(CC(c1ccccc1)c1ccccc1)c1ccccc1,,,,,96,,,
c1ccc(-c2ccc(-c3ccccc3)o2)cc1,344,,,,91,,,
CCNC1CCCCC1,164,,,,,,,
O=C(c1ccc(Br)cc1)c1ccc(Br)cc1,395,,,,177,,,
FCCCCCl,115,,,,,,,
CC(C)CCC(=O)O,200,,,,-33,,,
CC(C)C1CCCC1,126,,1.21,,-111,,,
O=C(NC(Cc1ccccc1)c1ccccc1)c1cccnc1 (stereo not drawn),,,,,159,,,
FC(F)(F)C(F)(F)Br,-21,,,,,,,
COC(=O)C1(S(=O)(=O)c2ccccc2)CCCC1,,,,,56.5,,,
C=CCCCCC,93.6,,1.77,,-120,,,
CB(C)C,-20.2,,,,-162,,,
Cc1ccc2cc3c(ccc4ccccc43)c3c2c1CC3,,,-7.37,,180,not readily biodegradable,,6.1
CC1=C2[C@H]3OC(=O)[C@@H](C)[C@@H]3[C@@H](O)C[C@@]2(C)C=CC1=O,,,,,203,,,

SMILES,boiling point [°C],log10 biodegradation half-life (days),log10 vapour pressure (mmHg),log10 Henry constant (atm·m³/mol),melting point [°C],ready biodegradability,log10 Koa,log10 Koc (L/kg)
c1ccc(C2CCOCO2)cc1 (stereo not drawn),247,,,,,,,
Cc1ccccc1N=C(N)Nc1ccccc1C,,,,,,not readily biodegradable,,
O=C1c2ccccc2C(=O)C1c1ccc2ccccc2n1,,,,,241,,,
CCC(Br)C(Br)Br (stereo not drawn),216,,,,,,,
COc1ccc2c(c1OC)C(=O)OC2,,,,,102,,,
Nc1ccc(Cl)c(Cl)c1,272,,-2.2,,72,not readily biodegradable,,2.29
Fc1cc2c(cc1F)Oc1cc(Br)c(Br)cc1O2,,,-7.74,,210,,,
CCCCC1CCC(O)C(OC)C1 (stereo not drawn),,,,,,readily biodegradable,,
C=CCCCCCCCCC=C,208,,,,,,,
CCCN(CCC)c1c([N+](=O)[O-])cc(C(C)C)cc1[N+](=O)[O-],,,-4.52,,,,,4
CN1CC[C@]23c4c5ccc(OCCN6CCOCC6)c4O[C@H]2[C@@H](O)C=C[C@H]3[C@H]1C5,,,,,91,,,
COC(=O)C1(S(=O)(=O)c2ccc(Br)cc2)CC1,,,,,124,,,
CCCCCS,127,,1.14,,-75.7,,,
c1ccc(Cc2ccccc2)cc1,265,,-2.09,,25.2,not readily biodegradable,,
Cc1cccc(C)c1OCC(C)N (stereo not drawn),,,,,204,,,
O=C(Cl)c1ccc(F)cc1,,,,,9,,,
CC[N+](C)(CC)CCOC(=O)C(O)(c1ccccc1)C1CCCCC1.[Br-] (stereo not drawn),,,,,192,,,
O=C1NN(c2ccccc2)C(=O)C1c1ccccc1 (stereo not drawn),,,,,234,,,
c1ccc2c(c1)ccc1c3ccccc3ccc21,448,2.58,-8.21,-5.28,258,,,
COc1ccccc1N1CCN(CCCNc2cc(=O)n(C)c(=O)n2C)CC1,,,,,157,,,
CCCCCCCCCCCCCCCCOC(=O)CCCCCCCCCCCCCCC,,,,,54,,,
O=C(c1ccccc1)c1ccc(Cl)c([N+](=O)[O-])c1,,,,,105,,,
S=c1sccs1,,,,,49,,,
CCC1C=CCC1 (stereo not drawn),97.8,,,,,,,
Nc1cccc2c1C(=O)c1ccccc1C2=O,,,-8.3,,254,not readily biodegradable,,

SMILES,boiling point [°C],log10 biodegradation half-life (days),log10 vapour pressure (mmHg),log10 Henry constant (atm·m³/mol),melting point [°C],ready biodegradability,log10 Koa,log10 Koc (L/kg)
CCCCCCCCCCCCCC(=O)OCC,295,,,,12.3,,,
CCN(CC)c1ccc(C(=O)c2ccccc2C(=O)O)c(O)c1,,,,,,not readily biodegradable,,
CC1=CC[C@@]23CC1C(C)(C)[C@@H]2CC[C@H]3C,,,,,262,,,
Cc1c(N)c(=O)n(-c2ccccc2)n1C,,,,,109,,,
Nc1ccc(N)c2c1C(=O)c1cccc([N+](=O)[O-])c1C2=O,,,,,257,,,
CC12CC1(C)C(=O)N(c1cc(Cl)cc(Cl)c1)C2=O (stereo not drawn),,,,,166,,,3.18
CCCCCC(O)(CC)CC,199,,,,,,,
C[Si](C)(C)O[Si](C)(O[Si](C)(C)C)O[Si](C)(C)C,,,-1.4,,,,,
Clc1ccc(Oc2ccccc2Cl)cc1,,,-3.15,,,,,
FC(F)(F)C(Cl)Cl,27,,2.86,-1.59,-107,not readily biodegradable,,
Cc1ccc2cc3ccc4ccccc4c3cc2c1,,,,,183,,,
Cc1cccc(C(C)(C)C)c1O,230,,,,31,not readily biodegradable,,
CCOC(=O)C(CC)(CC)C(C)=O,216,,,,,,,
CCCCCCCCCCF,186,,-0.203,,-35,,,
OCCO,197,,-1.04,-7.22,,readily biodegradable,,
CC[N+]1(C)CCCC(OC(=O)C(O)(c2ccccc2)c2ccccc2)C1.[Br-] (stereo not drawn),,,,,180,,,
O=C(O)CNC(CO)(CO)CO,,,,,187,,,
C=CCCCCCCCCCCC,233,,-1.2,,-13,,,
O=C(O)/C=C/C=C/C(=O)O,,,,,301,,,
C=C=C,-34.4,,3.73,,-136,,,
Oc1ccc(Br)c(O)c1,,,,,103,,,
CCOc1ccc2ccccc2c1,282,,,,37.5,,,
CCCCCCCC(=O)OCCCC,240,,,,-42.9,,,
C=C(C)c1ccc(C)c2ccc(C=O)c-2c1,,,,,58,,,
CCOC(=O)CCCCC(=O)OCC,245,,-1.24,,-19.8,,,

SMILES,boiling point [°C],log10 biodegradation half-life (days),log10 vapour pressure (mmHg),log10 Henry constant (atm·m³/mol),melting point [°C],ready biodegradability,log10 Koa,log10 Koc (L/kg)
O=C(O)c1ccsc1,,,,,138,,,
O=[N+]([O-])c1cc(Cl)c(Cl)cc1Cl,288,,,,57.5,,,
Cc1ccc(/N=N/c2c(O)ccc3ccccc23)c(C)c1,,,,,166,,,
Cc1cccc(NC=O)c1,290,,,,,,,
[O-][n+]1ccccc1S,,,,,70.5,,,
CCCCCCC(C)OC(=O)COc1nc(F)c(Cl)c(N)c1Cl (stereo not drawn),,,-8,,59,,,
O=C(CCCl)NCc1ccccc1,,,,,94,,,
CC1(C)CC(C)(c2ccccc2)c2ccccc21 (stereo not drawn),308,,,,52.5,,,
CC(C)CCON=O,99.2,,,,,,,
CCCCCc1ccc(O)cc1O,,,,,72.5,,,
C=C[C@H]1CNCC[C@H]1CCC(=O)c1ccnc2ccccc12,,,,,59,,,
CN(C)C(=S)Sc1ccc([N+](=O)[O-])cc1[N+](=O)[O-],,,,,152,,,
CCCC(=O)O[C@]1(C(=O)CCl)[C@@H](C)C[C@H]2[C@@H]3CCC4=CC(=O)C=C[C@]4(C)[C@@]3(F)C(=O)C[C@@]21C,,,,,95,,,
CC(CCCC(=O)O)C(=O)O (stereo not drawn),,,,,64,,,
CC(C)NCC(O)c1cc(O)cc(O)c1 (stereo not drawn),,,,,100,,,
CCC(C)(C)CC(C)C,131,,1.13,,-113,,,
CC(C)OP(=O)(OC(C)C)SCc1ccccc1,,,-4.39,,,,,2.26
CC(C)CCCN,125,,,,-94.4,,,
Cl.NCCc1c[nH]c2ccccc12,,,,,255,,,
CCSC#N,146,,,,-85.5,,,
Fc1c(F)c(F)c2c(F)c(F)c(F)c(F)c2c1F,209,,,,87.5,,,
Clc1ccc(-c2c(Cl)ccc(Cl)c2Cl)cc1,,,,-3.85,,,8.41,

# Same assay, conditions: fish
SMILES,log10 BCF,log10 biotransformation half-life (days)
CC(O)COCC(C)O (stereo not drawn),0.66,
Nc1ccc(Cl)c(Cl)c1,1.11,-1.09
c1ccc(Cc2ccccc2)cc1,2.94,
c1ccc2c(c1)ccc1c3ccccc3ccc21,,0.59
Nc1cccc2c1C(=O)c1ccccc1C2=O,1.98,-0.59
C=CCCCCCCCCCCC,,0.73
O=[N+]([O-])c1ccc(Cl)c(S(=O)(=O)[O][Na])c1,0.48,
O=[N+]([O-])c1cc(Cl)c(Cl)cc1Cl,1.84,-0.64
CCCCCCC(C)OC(=O)COc1nc(F)c(Cl)c(N)c1Cl (stereo not drawn),,-0.61
CC(C)OP(=O)(OC(C)C)SCc1ccccc1,0.94,-1.2
Clc1ccc(-c2c(Cl)ccc(Cl)c2Cl)cc1,,2.35
